Reference: patent US12390472B2 (SUZHOU SINOVENT PHARMACEUTICALS CO., LTD., priority 2018, dated 2025)
Read-outs that look alike come from different tables or passages of the source.

Columns and labels:
[1] = target: EZH2 enzyme complex (Homo sapiens (Human), UniProt Q15910); test: Test on EZH2 inhibitory activity (TR-FRET); assay type: biochemical; conditions: EZH2 enzyme complex 25 ng/uL, histone H3 peptide 4 uM, SAM 2 uM, 300 min; read-out: IC50 of EZH2 inhibition
Method: • EZH2 enzyme complex: 25 ng/uL • Histone H3 peptide substrate: 4 uM • SAM: 2 uM • Reaction time: 300 min Procedures • 1. Each compound disclosed herein was diluted with 1×HMT buffer and transferred to a 384-well assay plate at 3 uL per well; • 2. The EZH2 enzyme solution was prepared with 1×HMT buffer and transferred to the 384-well assay plate at 2 uL per well; • 3. The above assay plate was incubated for 30 min; • 4. A mixture solution of SAM and histone H3 peptide substrate at 2-fold concentration was prepared with 4×HMT buffer; • 5. 5 uL of the mixture solution of SAM and substrate was added to each well of the assay plate to react at room temperature, and the assay plate was sealed with plastic; • 6. After incubation for 5 h, 10 uL of TR-FRET detection buffer containing Tb-labeled antibody and dye-labeled receptor was added to each well of the assay plate; • 7. After incubation for 1 h at room temperature, the assay plate was detected; • 8.

[2] = tested on: WSU-DLCL2; test: Methylated lysine of histone-H3 (H3K27Me3) detection by ELISA, WSU-DLCL2 cells; assay type: cell-based; conditions: WSU-DLCL2, 7 days treatment, H3K27Me3 normalized to total histone-3, read-out: IC50 of cell methylation, WSU-DLCL2
How it was run: (§1)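 Cells were treated 7 days with compound (4-fold dilutions, 20 uM-0.009 nM), then lysed hypotonically with NaCl adjusted to ~100 mM. Lysate-coated plates were probed by ELISA for H3K27Me3 and total H3 (TMB, A450). Methylation signal was normalised to total H3 before curve fitting.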

[3] = tested on: Pfeiffer; test: Methylated lysine of histone-H3 (H3K27Me3) detection by ELISA, Pfeiffer cells; assay type: cell-based, human; conditions: 7 days treatment, H3K27Me3 normalized to total histone-3, read-out: IC50 of cell methylation, Pfeiffer
How it was run: as §1

[4] = In vivo pharmacokinetic properties in mice; set-up: species or system mouse; conditions: male ICR mice; for F: intragastric 250 mg/kg vs intravenous 5 mg/kg; for CL / AUC(0-inf) / Cmax / Tmax / half-life: single intravenous 5 mg/kg and intragastric 250 mg/kg study; for AUC(0-inf) / Cmax / Tmax / half-life: mouse, plasma; for AUC(0-inf) / Cmax / Tmax: oral; for Cmax: read-out: Cmax; for Tmax: read-out: Tmax
Method: Male ICR mice were divided into different groups with 3 mice in each group, and single intravenous injection and single intragastric administration were conducted respectively. The compounds were formulated with 10% DMSO/90% (20% Captisol) to reach an appropriate concentration and then administered intravenously at 5 mg/kg. The compounds were formulated with 0.5% CMC-Na/0.1% Tween 80 (pH=3-4) to reach an appropriate concentration and then administered intragastrically at 250 mg/kg. Blood was taken at 5 min, 15 min, 30 min, 1 h, 2 h, 4 h, 6 h, 8 h and 24 h after administration, and then subjected to EDTA-K2 anticoagulation. The concentration of the compound in the plasma was quantitatively detected by an LC-MS/MS method.

Chain of EZH2 enzyme complex (Q15910 whole entry): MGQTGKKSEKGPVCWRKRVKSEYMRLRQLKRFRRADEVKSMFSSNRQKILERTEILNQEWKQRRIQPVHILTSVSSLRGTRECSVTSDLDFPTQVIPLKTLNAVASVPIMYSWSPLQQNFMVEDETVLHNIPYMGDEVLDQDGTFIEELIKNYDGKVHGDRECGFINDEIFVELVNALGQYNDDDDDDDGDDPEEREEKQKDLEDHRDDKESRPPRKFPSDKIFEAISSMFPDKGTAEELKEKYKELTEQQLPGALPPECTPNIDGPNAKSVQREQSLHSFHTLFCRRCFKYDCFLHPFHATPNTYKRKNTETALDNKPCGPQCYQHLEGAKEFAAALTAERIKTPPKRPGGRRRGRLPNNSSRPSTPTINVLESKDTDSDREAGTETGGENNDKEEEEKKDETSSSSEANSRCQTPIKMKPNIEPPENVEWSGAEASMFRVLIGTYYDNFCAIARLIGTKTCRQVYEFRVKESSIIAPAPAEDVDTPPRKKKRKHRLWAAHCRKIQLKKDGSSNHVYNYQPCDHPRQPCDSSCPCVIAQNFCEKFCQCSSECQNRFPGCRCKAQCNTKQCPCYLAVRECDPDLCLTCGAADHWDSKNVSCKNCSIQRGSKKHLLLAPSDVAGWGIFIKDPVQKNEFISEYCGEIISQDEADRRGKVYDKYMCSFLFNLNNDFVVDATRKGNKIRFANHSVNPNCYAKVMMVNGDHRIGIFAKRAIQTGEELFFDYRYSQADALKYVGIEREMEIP
Chain of EZH2 enzyme complex (O75530 whole entry partner): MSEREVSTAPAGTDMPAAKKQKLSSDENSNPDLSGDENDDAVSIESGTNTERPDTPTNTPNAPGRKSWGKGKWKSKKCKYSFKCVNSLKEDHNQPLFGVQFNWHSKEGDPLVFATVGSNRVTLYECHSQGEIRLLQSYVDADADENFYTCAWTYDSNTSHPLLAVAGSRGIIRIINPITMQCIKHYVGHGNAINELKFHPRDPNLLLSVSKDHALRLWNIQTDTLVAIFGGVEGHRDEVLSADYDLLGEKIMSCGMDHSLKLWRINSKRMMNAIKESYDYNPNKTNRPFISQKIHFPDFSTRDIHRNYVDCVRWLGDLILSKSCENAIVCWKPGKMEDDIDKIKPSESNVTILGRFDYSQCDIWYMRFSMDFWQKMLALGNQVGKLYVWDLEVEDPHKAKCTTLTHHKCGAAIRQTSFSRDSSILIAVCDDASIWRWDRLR
Chain of EZH2 enzyme complex (Q15022 whole entry partner): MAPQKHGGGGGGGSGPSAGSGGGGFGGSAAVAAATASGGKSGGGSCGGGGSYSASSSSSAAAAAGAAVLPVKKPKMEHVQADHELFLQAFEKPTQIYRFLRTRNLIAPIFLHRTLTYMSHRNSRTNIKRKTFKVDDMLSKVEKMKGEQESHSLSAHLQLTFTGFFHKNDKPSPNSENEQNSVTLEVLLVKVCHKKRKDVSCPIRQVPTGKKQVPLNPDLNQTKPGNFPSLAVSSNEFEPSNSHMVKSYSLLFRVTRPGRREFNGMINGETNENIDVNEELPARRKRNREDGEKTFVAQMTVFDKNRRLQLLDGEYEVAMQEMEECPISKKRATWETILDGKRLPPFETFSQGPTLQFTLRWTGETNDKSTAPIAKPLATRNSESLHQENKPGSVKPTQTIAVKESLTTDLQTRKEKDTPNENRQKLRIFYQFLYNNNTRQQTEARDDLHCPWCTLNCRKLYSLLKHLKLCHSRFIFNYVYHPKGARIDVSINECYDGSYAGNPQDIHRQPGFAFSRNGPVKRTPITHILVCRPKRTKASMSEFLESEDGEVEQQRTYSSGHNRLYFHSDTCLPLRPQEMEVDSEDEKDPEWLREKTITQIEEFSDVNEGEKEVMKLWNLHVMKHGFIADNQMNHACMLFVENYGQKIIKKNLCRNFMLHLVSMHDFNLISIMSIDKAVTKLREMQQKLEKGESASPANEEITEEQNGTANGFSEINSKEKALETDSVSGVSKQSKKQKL

CCN(c1cc(O[C@H]2C[C@H](N3CCOCC3)C2)cc(C(=O)NCc2c(C)cc(C)[nH]c2=O)c1C)C1CCOCC1 [Example 4, N-((4,6-dimethyl-2-oxo-1,2-dihydropyridin-3-yl)methyl)-3-(ethyl(tetrahydro-2H-pyran-4-yl)amino)-2-methyl-5-(trans-3-morpholinylcyclobutoxy)benzamide]
IC50 [1]: 10 to 100 nM | IC50 ([2]; Homo sapiens, WSUDLCL2, 168 h): 50 to 500 nM | IC50 ([3]; Homo sapiens, 168 h): < 50 nM | F [4]: 25.1% | CL [4]: 60.6 ± 19.36 mL/min/lg | AUC(0-inf) [4]: 18800 ± 487 ng·h/mL | Cmax [4]: 16500 ± 4630 ng/mL | Tmax [4]: 0.33 ± 0.14 h | half-life [4]: 3.13 ± 3.1 h

CCN(c1cc(O[C@H]2C[C@H](N3C[C@@H](C)O[C@@H](C)C3)C2)cc(C(=O)NCc2c(C)cc(C)[nH]c2=O)c1C)C1CC2CCC(C1)O2 (stereo partly drawn) [Example 47, 3-((8-oxabicyclo[3.2.1]octan-3-yl)(ethyl)amino)-N-((4,6-dimethyl-2-oxo-1,2-dihydropyridin-3-yl)methyl)-5-(trans-3-(cis-2,6-dimethylmorpholinyl)cyclobutoxy)-2-methylbenzamide]
IC50 [1]: 10 to 100 nM | IC50 ([2]; Homo sapiens, WSUDLCL2, 168 h): 50 to 500 nM | IC50 ([3]; Homo sapiens, 168 h): 50 to 500 nM | F [4]: 118.1% | CL [4]: 103 ± 11.9 mL/min/lg | AUC(0-inf) [4]: 48000 ng·h/mL | Cmax [4]: 19600 ± 8050 ng/mL | Tmax [4]: 0.67 ± 0.29 h | half-life [4]: 3.1 ± 1.04 h

CCN(c1cc(O[C@H]2C[C@H](N3CCC(C)CC3)C2)cc(C(=O)NCc2c(C)cc(C)[nH]c2=O)c1Cl)C1CCOCC1 [Example 59, 2-chloro-N-((4,6-dimethyl-2-oxo-1,2-dihydropyridin-3-yl)methyl)-3-(ethyl(tetrahydro-2H-pyran-4-yl)amino)-5-(trans-3-(4-methylpiperidin-1-yl)cyclobutoxy)benzamide]
IC50 [1]: < 10 nM | IC50 ([2]; Homo sapiens, WSUDLCL2, 168 h): < 50 nM | IC50 ([3]; Homo sapiens, 168 h): 50 to 500 nM | F [4]: 60.5% | CL [4]: 59.1 ± 6.95 mL/min/lg | AUC(0-inf) [4]: 43000 ng·h/mL | Cmax [4]: 16600 ng/mL | Tmax [4]: 0.8 ± 0.27 h | half-life [4]: 6.2 ± 3.83 h

CCN(c1cc(C2CC2CO)cc(C(=O)NCc2c(C)cc(C)[nH]c2=O)c1C)C1CCOCC1 (stereo not drawn) [Example 71, N-((4,6-dimethyl-2-oxo-1,2-dihydropyridin-3-yl)methyl)-3-(ethyl(tetrahydro-2H-pyran-4-yl)amino)-5-(2-(hydroxymethyl)cyclopropyl)-2-methylbenzamide]
IC50 [1]: 10 to 100 nM | IC50 ([2]; Homo sapiens, WSUDLCL2, 168 h): 50 to 500 nM | IC50 ([3]; Homo sapiens, 168 h): < 50 nM

CCN(c1cc(C2CC2CN2CCOCC2)cc(C(=O)NCc2c(C)cc(C)[nH]c2=O)c1C)C1CCOCC1 (stereo not drawn) [Example 72, N-((4,6-dimethyl-2-oxo-1,2-dihydropyridin-3-yl)methyl)-3-(ethyl(tetrahydro-2H-pyran-4-yl)amino)-2-methyl-5-(2-(morpholinylmethyl)cyclopropyl)benzamide]
IC50 [1]: 10 to 100 nM | IC50 [2]: 50 to 500 nM | IC50 [3]: < 50 nM

CCN(c1cc(C2CC2CN2CCNCC2)cc(C(=O)NCc2c(C)cc(C)[nH]c2=O)c1C)C1CCOCC1 (stereo not drawn) [Example 73, N-((4,6-dimethyl-2-oxo-1,2-dihydropyridin-3-yl)methyl)-3-(ethyl(tetrahydro-2H-pyran-4-yl)amino)-2-methyl-5-(2-(piperazin-1-ylmethyl)cyclopropyl)benzamide]
IC50 [1]: 10 to 100 nM | IC50 ([2]; Homo sapiens, WSUDLCL2, 168 h): 50 to 500 nM | IC50 ([3]; Homo sapiens, 168 h): 50 to 500 nM

CCN(c1cc(C2CC2CN2CCN(C)CC2)cc(C(=O)NCc2c(C)cc(C)[nH]c2=O)c1C)C1CCOCC1 (stereo not drawn) [Example 74, N-((4,6-dimethyl-2-oxo-1,2-dihydropyridin-3-yl)methyl)-3-(ethyl(tetrahydro-2H-pyran-4-yl)amino)-2-methyl-5-(2-((4-methylpiperazin-1-yl)methyl)cyclopropyl)benzamide]
IC50 [1]: 10 to 100 nM | IC50 ([2]; Homo sapiens, WSUDLCL2, 168 h): 50 to 500 nM | IC50 ([3]; Homo sapiens, 168 h): < 50 nM

CCN(c1cc(C2CC2CN2C[C@@H](C)O[C@@H](C)C2)cc(C(=O)NCc2c(C)cc(C)[nH]c2=O)c1C)C1CCOCC1 (stereo partly drawn) [Example 75, N-((4,6-dimethyl-2-oxo-1,2-dihydropyridin-3-yl)methyl)-5-(2-((cis-2,6-dimethylmorpholinyl)methyl)cyclopropyl)-3-(ethyl(tetrahydro-2H-pyran-4-yl)amino)-2-methylbenzamide]
IC50 [1]: 10 to 100 nM | IC50 ([2]; Homo sapiens, WSUDLCL2, 168 h): > 1000 nM | IC50 ([3]; Homo sapiens, 168 h): < 50 nM

CCN(c1cc(C2CC2CN2CCN(CC(C)(C)C)CC2)cc(C(=O)NCc2c(C)cc(C)[nH]c2=O)c1C)C1CCOCC1 (stereo not drawn) [Example 76, N-((4,6-dimethyl-2-oxo-1,2-dihydropyridin-3-yl)methyl)-3-(ethyl(tetrahydro-2H-pyran-4-yl)amino)-2-methyl-5-(2-((4-neopentylpiperazin-1-yl)methyl)cyclopropyl)benzamide]
IC50 [1]: 10 to 100 nM | IC50 ([2]; Homo sapiens, WSUDLCL2, 168 h): 50 to 500 nM | IC50 ([3]; Homo sapiens, 168 h): < 50 nM

CCN(c1cc(C2CC2CN2CCCCC2)cc(C(=O)NCc2c(C)cc(C)[nH]c2=O)c1C)C1CCOCC1 (stereo not drawn) [Example 77, N-((4,6-dimethyl-2-oxo-1,2-dihydropyridin-3-yl)methyl)-3-(ethyl(tetrahydro-2H-pyran-4-yl)amino)-2-methyl-5-(2-(piperidin-1-ylmethyl)cyclopropyl)benzamide]
IC50 [1]: 10 to 100 nM | IC50 ([2]; Homo sapiens, WSUDLCL2, 168 h): 50 to 500 nM | IC50 ([3]; Homo sapiens, 168 h): < 50 nM

CCN(c1cc(C2CC2CN2CCC(F)(F)CC2)cc(C(=O)NCc2c(C)cc(C)[nH]c2=O)c1C)C1CCOCC1 (stereo not drawn) [Example 78, 5-(2-((4,4-difluoropiperidin-1-yl)methyl)cyclopropyl)-N-((4,6-dimethyl-2-oxo-1,2-dihydropyridin-3-yl)methyl)-3-(ethyl(tetrahydro-2H-pyran-4-yl)amino)-2-methylbenzamide]
IC50 [1]: 10 to 100 nM | IC50 ([2]; Homo sapiens, WSUDLCL2, 168 h): 50 to 500 nM | IC50 ([3]; Homo sapiens, 168 h): < 50 nM

CCN(c1cc(C2CC2CN2CCC(F)CC2)cc(C(=O)NCc2c(C)cc(C)[nH]c2=O)c1C)C1CCOCC1 (stereo not drawn) [Example 79, N-((4,6-dimethyl-2-oxo-1,2-dihydropyridin-3-yl)methyl)-3-(ethyl(tetrahydro-2H-pyran-4-yl)amino)-5-(2-((4-fluoropiperidin-1-yl)methyl)cyclopropyl)-2-methylbenzamide]
IC50 [1]: 10 to 100 nM | IC50 ([2]; Homo sapiens, WSUDLCL2, 168 h): 50 to 500 nM | IC50 ([3]; Homo sapiens, 168 h): < 50 nM
